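Step 1: Grow cells in 96-well plates. Step 2: Expose to compound for 48 hours at 5 concentrations. Step 3: Interpolate endpoints linearly; if unreached, use highest concentration. At the GI50, growth is halved. The concentration for full growth arrest is given as TGI.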
How the values were obtained:
Assay in all cases: growth of human tumour cells (NCI), 48 h
[1] = system: A498 renal
[2] = system: HCC-2998 colon
[3] = system: IGROV1 ovarian
[4] = system: LOX IMVI melanoma
[5] = system: NCI-H226 lung
[6] = system: NCI-H23 lung
[7] = system: OVCAR-3 ovarian
[8] = system: SK-MEL-5 melanoma
[9] = system: SNB-75 CNS
[10] = system: UO-31 renal

| Compound | TGI [1] [µM] | TGI [2] [µM] | TGI [3] [µM] | TGI [4] [µM] | TGI [5] [µM] | TGI [6] [µM] | TGI [7] [µM] | TGI [8] [µM] | TGI [9] [µM] | TGI [10] [µM] | GI50 [1] [µM] | GI50 [2] [µM] | GI50 [3] [µM] | GI50 [4] [µM] | GI50 [5] [µM] | GI50 [6] [µM] | GI50 [7] [µM] | GI50 [8] [µM] | GI50 [9] [µM] | GI50 [10] [µM] |
| --- | --- | --- | --- | --- | --- | --- | --- | --- | --- | --- | --- | --- | --- | --- | --- | --- | --- | --- | --- | --- |
| CCOP(=O)(OCC)C(C(=O)OC)C(=O)C(=O)Nc1ccc(Cl)cc1Cl (centres undefined) | > 100 | > 100 | > 100 | > 100 | > 100 | > 100 | > 100 | > 100 | > 100 | > 100 | – | – | – | – | – | – | – | – | – | – |
| CC(C)(C)[Si](C)(C)OC1[C@@H](CNC(=O)NC(=O)CCl)O[C@@H](n2cnc3c(N)ncnc32)[C@H]1O[Si](C)(C)C(C)(C)C (some centres undefined) | 12.8 | 3.95 | 0.441 | 0.382 | 2 | 2.08 | 1.94 | 1.6 | 2.47 | 1.13 | 6.21 | 1.61 | 0.154 | 0.148 | 0.956 | 0.955 | 1.02 | 0.862 | 0.867 | 0.436 |
| Nc1cc(Br)c(-c2nnc(CCC(=O)c3nc4ccccc4[nH]3)o2)c(Br)c1 | 10.5 | 42.5 | 62.7 | 46.4 | > 100 | 36.4 | 6.98 | > 100 | 20.5 | > 100 | 0.662 | 11 | 5.87 | 3.25 | 22.6 | 3.26 | 2.6 | 14.2 | 2.96 | 4.06 |
| COC(=O)/C([Se]c1c(C)cc(C)cc1C)=C(/[Se]c1c(C)cc(C)cc1C)C(=O)OC | > 100 | > 100 | > 100 | > 100 | > 100 | > 100 | > 100 | > 100 | > 100 | > 100 | – | – | – | – | – | – | – | – | – | – |
| COc1cc2c(Nc3cc(Cl)c(OC)c(Cl)c3)c(C#N)cnc2cc1OCCCN1CCN(C)CC1 | 2.61 | 4.1 | 12 | 2.43 | 18.2 | 4.89 | 4.49 | 2.71 | 25.2 | 5.47 | 0.904 | 1.56 | 0.189 | 1.06 | 3.39 | 1.54 | 1.65 | 1.37 | 6.57 | 0.641 |
| COc1ccc(-c2nccn2-c2ccc(OC)cc2)cc1 | 55.9 | 33.7 | > 82 | 97.9 | > 70.8 | 58.9 | 62.6 | 30.4 | 30.3 | > 82 | 14.4 | 16.4 | 25.2 | 32.2 | 18.6 | 22.2 | 21.6 | 14.2 | 5.06 | 23.3 |
| CCN(CC)CCCCCCNc1cccc2cc(Br)cnc12 | 21.3 | 15.4 | 10.9 | 8.07 | 27 | 20.7 | 24.8 | 3.27 | 9.17 | 15 | 4.28 | 3.84 | 3.25 | 2.64 | 11.8 | 5.89 | 8.63 | 1.83 | 2.82 | 3.15 |
| COc1c(C)n(CCO)ccc1=O | > 100 | – | – | > 100 | > 100 | – | > 100 | > 100 | > 100 | > 100 | – | – | – | – | – | – | – | – | – | – |
| Cc1[nH]c2ccccc2c1C1Cc2ccccc2N1C(=O)C#Cc1ccc([N+](=O)[O-])cc1 (centres undefined) | > 100 | > 100 | > 100 | > 100 | > 100 | > 100 | > 100 | – | > 100 | > 100 | – | – | – | – | – | – | – | – | – | – |
| Cc1cc(Nc2nc(-c3cn(-c4ccc(Cl)cc4)nn3)nc3ccccc23)n[nH]1 | > 50 | > 50 | > 50 | > 50 | > 50 | – | 23.4 | > 50 | > 50 | 11.3 | > 50 | 36.4 | 9.16 | 9.7 | > 50 | – | 10.5 | 20.8 | 23 | 1.65 |
| CC1(C)CN=C(NN=C(/C=C/c2ccc(C(F)(F)F)cc2)/C=C/c2ccc(C(F)(F)F)cc2)NC1 | 2.78 | 2.92 | 2.88 | 2.8 | 3.27 | 3.23 | 3.05 | 3.11 | 2.95 | 2.94 | 1.42 | 1.41 | 1.44 | 1.39 | 1.51 | 1.56 | 1.67 | 1.6 | 1.56 | 1.52 |
| COc1cc(/C=C2\[C@H]3c4c(c(OC)c(C)c(OC)c4OC)CC(C(=O)N2Cc2ccccc2)N3C)c(OC)c(C)c1OC | 50.1 | 62.8 | 51.6 | 33.4 | 24 | > 100 | 31.2 | 33 | 82.7 | 41.8 | – | – | – | – | – | – | – | – | – | – |
| Cc1ccc(OCCOCCOCCOCCOc2ccc(C)n(O)c2=S)c(=S)n1O | 10.9 | > 100 | 54.3 | > 69.6 | 12.7 | > 100 | 50.8 | 11.3 | > 100 | 4.14 | 0.323 | 0.25 | < 0.01 | 0.0481 | < 0.0291 | 0.0166 | < 0.01 | 0.0438 | 3.49 | 0.0177 |
| COc1ccc(/C(C)=C(\c2ccc(OCCN3CCCCCC3)cc2)c2ccc(OC(=O)C3CCCCC3)cc2)cc1 | 3.45 | 3.36 | 3.88 | 0.788 | 4.77 | 4.32 | 3.13 | 3 | 3.88 | 2.22 | 1.35 | 1.24 | 1.21 | 0.319 | 2.02 | 1.29 | 1.16 | 1.08 | 1.6 | 0.453 |
